Measured values taken from US12570605B2, “Indole compounds, and preparation methods, and uses thereof” (Shenzhen 01 Life Science and Technology Co., Ltd., priority 2021, dated 2026).
“Also recorded” adds a separate entry of the source.

Legend:
[1] = tested on: mouse model with ear AD-like symptoms induced by calcipotriol (MC903); assay: Optimum effective concentration in treatment of AD-like symptoms, MC903 mouse model (Embodiment 33); assay type: in vivo; conditions: vs group only administrated with MC903; for inhibitory effect on systematic inflammation (lower total serum IgE levels and improvement on AD-like symptoms in the mice ear): dosages per Table 11
Description: The above screened compounds having therapeutic effect on AD-like symptoms were selected to further determine the optimum effective concentration.
Referring to the animal model method in the Embodiment 32, dosages of drugs for each group were determined according to the table below, and the optimal effective concentration in treatment of AD-like symptoms was explored by comparing the differences in ear thicknesses, the total serum IgE levels and the weight loss of the mice with those of the treatment group only administrated with MC903.

[2] = tested on: mouse model with ear AD-like symptoms induced by calcipotriol (MC903); assay: Mouse model with ear AD-like symptoms induced by calcipotriol (MC903), second batch of experiments (Embodiment 32); assay type: in vivo, BALB/c mouse; conditions: MC903 5 nmol/mouse every day, 9 days; for therapeutic effects on AD-like symptoms in the ear of mice (ear inflammation, tissue HE staining, parameters of multiple experiments): screening over both batches; for reducing the total serum IgE levels of the mice / reducing ear thicknesses of the mice: vs model control group (MC903+EtOH), Mann-Whitney test
Description: (§1) A mouse model with ear AD-like symptoms induced by calcipotriol (MC903) was used to investigate these compounds in terms of the treatment activity for AD.
(§2) Referring to the Patent with a publication number of CN 110368386 A, a mouse model induced by MC903 (Calcipotriene) was prepared, wherein both ears of the BALB/c mouse model were applied with MC903, MC903+indole-3-aldehyde (IAId), or MC903+the compound prepared from the embodiments for 11 consecutive days, respectively, and total serum IgE levels, ear thicknesses, and weight loss in relative to the weight at the beginning of the experiment were tested at the end of the experiment.
(§3) The data shown in the results were average values ±SD of five independently repeated trials. Significance analysis was performed using Mann-Whitney test on the differences of corresponding parameters of the mice with the treatment group (MC903+ethanol (EtOH)), which was only administrated with MC903, wherein * indicated P<0.05, ** indicated P<0.01; *** indicated P<0.001.
Therefore, in the second batch of drug tests, the dosage of MC903 was decreased to 5 nmol/mouse every day, and the test period was reduced to 9 days.
EtOH group was a Blank control group, which was only administrated with ethanol. MC903+ EtOH group was a model control group, which was administrated with Calcipotriene and ethanol. The remaining groups were the groups which were administered with MC903 to construct the model, and then administered with different drugs. Indole-3-aldehyde (IAId) group was the group administered with IAId. Indole-3-methanol (I3C) group was the group administered with I3C. The other compound groups were the groups administered with corresponding compounds.

[3] = tested on: mouse model with ear AD-like symptoms induced by calcipotriol (MC903); assay: Mouse model with ear AD-like symptoms induced by calcipotriol (MC903), first batch of experiments (Embodiment 32); assay type: in vivo, BALB/c mouse; conditions: MC903 6.9 nmol/mouse every day; for therapeutic effects on AD-like symptoms in the ear of mice (combined with ear inflammation and tissue HE staining): 11 days; for reducing ear thicknesses of the mice / reducing the total serum IgE levels of the mice: both ears, 11 consecutive days, vs model control group (MC903+EtOH), Mann-Whitney test
Description: as §1, §2, §3
In this batch of experiments, the dosage of MC903, a drug for constructing the models, was 6.9 nmol/mouse every day, and the experimental results of Compounds 1, 2, 3, 6, 7, 19, 20, 28, 29, 30, 34, 37, 38, and 39 in this batch were shown in FIGS. 11 to 13.
EtOH group was a Blank control group, which was only administrated with ethanol. MC903+ EtOH group was a model control group, which was administrated with Calcipotriene and ethanol. The remaining groups were the groups which were administered with MC903 to construct the model, and then administrated with different drugs. Indole-3-aldehyde (IAId) group was the group administered with IAId, indole-3-methanol (I3C) group was the group administered with I3C. The other compound groups were the groups administered with corresponding compounds.

SMILES | inhibitory effect on systematic inflammation (lower total serum IgE levels and improvement on AD-like symptoms in the mice ear) [1] | therapeutic effects on AD-like symptoms in the ear of mice (ear inflammation, tissue HE staining, parameters of multiple experiments) [2] | reducing the total serum IgE levels of the mice [2] | therapeutic effect on AD-like symptoms in the mouse ear ([1]; at different concentration) | reducing ear thicknesses of the mice [2] | therapeutic effects on AD-like symptoms in the ear of mice (combined with ear inflammation and tissue HE staining) [3] | reducing ear thicknesses of the mice [3] | reducing the total serum IgE levels of the mice [3]
CCCCCCCCCCCC(=O)OCOC(=O)n1cc(CO)c2ccccc21 [Compound 22, (dodecanoyloxy)methyl 3-(hydroxymethyl)-1H-indole-1-carboxylate] | good inhibitory effect | therapeutic effects | statistically significant difference; also recorded: excellent effects |  |  |  |  | 
O=Cc1cn(C(=O)OCOC(=O)Cc2ccccc2Nc2c(Cl)cccc2Cl)c2ccccc12 [Compound 9, (2-(2-((2,6-dichlorophenyl)amino)phenyl)acetoxy)methyl 3-formyl-1H-indole-1-carboxylate] | good inhibitory effect | therapeutic effects | statistically significant difference; also recorded: excellent effects | significant therapeutic effect | statistically significant difference; also recorded: excellent effects |  |  | 
CCCCCCCCCCCC(=O)OCOC(=O)n1cc(C=O)c2ccccc21 [Compound 4, (dodecanoyloxy)methyl 3-formyl-1H-indole-1-carboxylate] | good inhibitory effect; also recorded: excellent inhibitory effect | therapeutic effects | statistically significant difference; also recorded: excellent effects |  | statistically significant difference |  |  | 
CCCCCCCCCC(=O)OCn1cc(C=O)c2ccccc21 [Compound 30, (3-formyl-1H-indol-1-yl)methyl decanoate] | good inhibitory effect; also recorded: excellent inhibitory effect | therapeutic effects | statistically significant difference; also recorded: excellent effects |  | statistically significant difference | significant therapeutic effects | statistically significant difference; also recorded: excellent effects | statistically significant difference; also recorded: excellent effects
O=Cc1c[nH]c2ccccc12 [IAId, indole-3-carboxaldehyde, reference compound] |  |  |  |  |  |  | significantly reduced | significantly reduced
CCCCCCCC(=O)OCOC(=O)n1cc(CO)c2ccccc21 [Compound 20, (octanoyloxy)methyl 3-(hydroxymethyl)-1H-indole-1-carboxylate] |  |  |  |  |  |  | statistically significant difference | 
CC(=O)Oc1ccccc1C(=O)OCn1cc(C=O)c2ccccc21 [Compound 35, (3-formyl-1H-indol-1-yl)methyl 2-acetoxybenzoate] | good inhibitory effect | therapeutic effects | statistically significant difference; also recorded: excellent effects |  |  |  |  | 
CCCCCCCC(=O)OCn1cc(C=O)c2ccccc21 [Compound 29, (3-formyl-1H-indol-1-yl)methyl octanoate] | good inhibitory effect | therapeutic effects |  |  | statistically significant difference | significant therapeutic effects | statistically significant difference; also recorded: excellent effects | statistically significant difference
CCCCCCCC(=O)OCn1cc(CO)c2ccccc21 [Compound 38, (3-(hydroxymethyl)-1H-indol-1-yl)methyl octanoate] | good inhibitory effect; also recorded: excellent inhibitory effect | therapeutic effects | statistically significant difference |  | statistically significant difference | significant therapeutic effects |  | statistically significant difference; also recorded: excellent effects
